In ChEMBL document CHEMBL4052608, “Hes1-Binding Compounds Isolated by Target Protein Oriented Natural Products Isolation (TPO-NAPI)” (2017):
Calls of active or inactive are those of the source. The rule behind the calls is not given here.

Experiments:
MEB5 [1] = test: Induction of neuronal differention in mouse MEB5 neurospheres at 10 uM after 4 days by DAPI dye-based fluorescence confocal laser scaning microscopic analysis; assay type: functional
MEB5 [2] = test: Increase in neuronal differention in mouse MEB5 neurospheres at 10 uM after 4 days by DAPI dye-based fluorescence confocal laser scaning microscopic analysis; assay type: functional
MEB5 [3] = test: Induction of neuronal differention in mouse MEB5 neurospheres at 100 uM after 4 days by DAPI dye-based fluorescence confocal laser scaning microscopic analysis; assay type: functional, cell-based
[4] = target: T1, Transcription factor HES-1 (Rattus norvegicus) (UniProt Q04666); test: Binding affinity to rat GST-tagged truncated HES1 (47 to 281 residues) expressed in Escherichia coli JM109 after 2 hrs by HPLC based bead assay
T1 sequence (whole entry): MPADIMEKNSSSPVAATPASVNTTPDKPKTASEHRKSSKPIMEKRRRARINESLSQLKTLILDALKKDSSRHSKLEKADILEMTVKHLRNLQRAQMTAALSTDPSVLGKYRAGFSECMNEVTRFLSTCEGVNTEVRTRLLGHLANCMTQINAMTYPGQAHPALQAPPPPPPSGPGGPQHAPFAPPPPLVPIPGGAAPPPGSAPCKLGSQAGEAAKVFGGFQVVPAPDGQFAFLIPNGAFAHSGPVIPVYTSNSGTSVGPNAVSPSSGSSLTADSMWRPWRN

[5] = target: T1, Transcription factor HES-1 (Rattus norvegicus); test: Binding affinity to rat GST-tagged truncated HES1 (1 to 95 residues) expressed in Escherichia coli JM109 after 2 hrs by HPLC based bead assay
[6] = target: T1, Transcription factor HES-1 (Rattus norvegicus); test: Binding affinity to rat GST-tagged truncated HES1 (151 to 281 residues) expressed in Escherichia coli JM109 after 2 hrs by HPLC based bead assay
[7] = target: T1, Transcription factor HES-1 (Rattus norvegicus); test: Binding affinity to rat GST-tagged truncated HES1 (47 to 156 residues) expressed in Escherichia coli JM109 after 2 hrs by HPLC based bead assay

Row | SMILES | Activity (MEB5 [1]) | Activity (MEB5 [2]) | Activity (MEB5 [3]) | Activity [4] | Activity [5] | Activity [6] | Activity [7]
1 | C/C=C/C=C/C=C/[C@@H]1NCC[C@@H](O)[C@H]1C | 35% | 34% |  |  |  |  | 
2 | CCCC(CCC)C(=O)O |  |  | Active |  |  |  | 
3 | CC1=C\C=C\C=C\CC(C)NC(=O)/C=C/C=C/C=C/C(C)C(O)C(O)C(O)CC(O)/C=C\C=C\1 (centres undefined) | 30% | 17% |  | Active | Active | Active | Active
